# Test results published in patent publication US7759313B2, “Induction method for cell differentiation” (Obschetstvo S Ogranichennoi Otvetstvennostiyu …, priority 2002, dated 2010).
# Values joined by “and” are separate entries in the source; they are usually repeats but may differ in a detail not shown here. Identical values can stand only once. Like-named read-outs stand apart in the source and are kept apart here.
# Experiments:
# human melanoma Mel-6 = experiment: Inoculated human melanoma Mel-6 growth dynamics in nude mice; assay type: in vivo
# Procedure: The study was conducted on 10-12 week old thymus free “nude” female Balb/C mice weighting 20-22 grams (breeding of the RCRC named after N. N. Blokhin of the RAMS). The human melanoma strain Mel-6 earlier obtained from primary clinical material was taken from the bank of tumor strains of the RCRC of the RAMS for transplantation to thymus free mice.
# Dicarbamine at the single doses 1.5 mg/kg and 4.5 mg/kg was p.o. administered daily to two mice groups for 3 weeks from the moment of the tumor development (from day 15 to day 36 from the tumor transplantation).
# Measurement of the tumor was done at days 18, 25, 33, 39, 46 and 53 from the transplantation. The effect of Dicarbamine was assessed on the basis of the tumor growth dynamics for 8 weeks in multiple measurements of tumor volumes “V” according to the formula: […]
# wherein L is length in mm, s is width in mm; and h is height in mm.
# The ratio between volumes of tumors Vt/Vt−1 expressed as a percentage was then calculated and statistically processed according to the Student's method to calculate statistically significant difference.
# [1] = test system: murine B-16 melanoma cells; experiment: Initial rate of cell proliferation (IRCP), B-16 cells; assay type: cell-based
# Procedure: The study was conducted on two continuous cell cultures growing in the form of a monolayer in a tissue culture (on murine B-16 melanoma cells and human M-5 melanoma cells). IN was administered at concentrations 70-700 IU/ml. Dicarbamine (D) was transferred into stock solution (1.000 μM), sterilized through filters with 0.22 μm pore diameter and then diluted to concentrations 0.01 and 1.0 μM.
# The effect of preparations on cells was assessed on the basis of initial rate of cell proliferation (IRCP). This index (IRCP), which is usually called colony rate growth, was determined by numbering the number of cells in micro colonies during the first days following affection in “test” (with preparations) and “control” (without preparations) dishes, by analyzing 50 colonies in each of them. Each “point” included […] three Petri dishes with growing cell colonies in adding specific concentrations of preparations under study. Growth rate of colonies (in %) was calculated according to the formula: […]
# Cell numbers in micro colonies were calculated for every “point”. Toxicity of preparations in the selected range of concentrations was judged by cell survival, which was determined by the ratio between numbers of the colonies grown in “test” and “control” dishes.
# inoculated B-16 melanoma = experiment: Distribution of tumor cells by cell cycle phases (DNA content); assay type: in vivo, mice; conditions: 0.5 mg/kg intragastrically daily for 10 days
# Procedure: Tests were done on inoculated B-16 melanoma. The effect of Dicarbamine on the distribution of tumor cells was studied on the basis of DNA content at different times following administration of the preparation. From day 6 after the tumor inoculation mice for 10 days were daily intragastrically given with 0.5 mg/kg Dicarbamine. Animals were sacrificed with subsequent investigation of tumor material at days 10, 12, 16 and 18 after inoculation, i.e. days 5 and 7 respectively after Dicarbamine administration as well as in 2 and 4 days after termination of Dicarbamine 10-day dosing.
# Friend erythroblastosis = experiment: Friend erythroblastosis, electronic microscopy of cell types; assay type: in vivo, mice
# Procedure: Friend erythroblastosis which was inoculated subcutaneously to DBA2 female mice via spleen cells was investigated.
# Group 2—Reaferon at dose 100 thousand IU/kg was administered daily s.c. from day 3 to day 7 after inoculation;
# Group 3—Dicarbamine at a single dose 4.5 mg/kg was administered p.o. from day 3 to day 7 after inoculation;
# Group 4—Dicarbamine and Reaferon were administered simultaneously according to a similar scheme.
# Material for light microscopy was taken from sacrificed animals at days 3, 7 and 14 after termination of therapy or administration of a physiological saline. Material for electronic microscopy was taken at days 7 and 14.
# For electronic microscopy, tumor pieces were fixed in a 2.5% glutaraldehyde solution and 1% osmium tetroxide and embedded in EPON-812. Semi-thin and ultra-thin slices were prepared on the LKB-III ultratome (Sweden). The obtained semi-thin slices were stained with Toluidine blue and examined through the light microscope. Ultra-thin slices were additionally stained with uranyl acetate and lead citrate; the slices examined and photographed in the JEOL 1200 EX-II electronic microscope (Japan).
# The percentage of cells with different types of differentiation (blast cells, lymphocytes and granular leukocytes) was calculated during electronic microscopy for quantitative assessment.
smiles,measurement,setting,value
O=C(O)CCCC(=O)NCCc1c[nH]cn1 [Dicarbamine],V (tumor volume) M + m,"human melanoma Mel-6; 1.5 mg/kg p.o. daily days 15-36, 18 day after inoculation",21.8 + 12.8
same,percent change in tumor volume Vt/Vt−1,"human melanoma Mel-6; 1.5 mg/kg, 18 day",100%
same,V (tumor volume) M + m,"human melanoma Mel-6; 1.5 mg/kg, 25 day",77.5 + 46.4
same,percent change in tumor volume Vt/Vt−1,"human melanoma Mel-6; 1.5 mg/kg, 25 day",302.0 ± 186.0%
same,V (tumor volume) M + m,"human melanoma Mel-6; 1.5 mg/kg, 33 day",342.0 + 142.0
same,percent change in tumor volume Vt/Vt−1,"human melanoma Mel-6; 1.5 mg/kg, 33 day",428.0 ± 313.1%
same,V (tumor volume) M + m,"human melanoma Mel-6; 1.5 mg/kg, 39 day",435.0 + 187.0
same,percent change in tumor volume Vt/Vt−1,"human melanoma Mel-6; 1.5 mg/kg, 39 day",23.2 ± 22.1%
same,V (tumor volume) M + m,"human melanoma Mel-6; 1.5 mg/kg, 46 day",662.0 + 417.0
same,percent change in tumor volume Vt/Vt−1,"human melanoma Mel-6; 1.5 mg/kg, 46 day",23.9 + 31.0%
same,V (tumor volume) M + m,"human melanoma Mel-6; 1.5 mg/kg, 53 day",783.0 + 423.0
same,percent change in tumor volume Vt/Vt−1,"human melanoma Mel-6; 1.5 mg/kg, 53 day",18.6 + 54.0%
same,V (tumor volume) M + m,"human melanoma Mel-6; 4.5 mg/kg p.o. daily days 15-36, 18 day",91.9 + 54.4
same,percent change in tumor volume Vt/Vt−1,"human melanoma Mel-6; 4.5 mg/kg, 18 day",100%
same,V (tumor volume) M + m,"human melanoma Mel-6; 4.5 mg/kg, 25 day",266.0 + 198.0
same,percent change in tumor volume Vt/Vt−1,"human melanoma Mel-6; 4.5 mg/kg, 25 day",166.0±93.0%
same,V (tumor volume) M + m,"human melanoma Mel-6; 4.5 mg/kg, 33 day",852.0 + 495.0
same,percent change in tumor volume Vt/Vt−1,"human melanoma Mel-6; 4.5 mg/kg, 33 day",276.0 ± 104.0%
same,V (tumor volume) M + m,"human melanoma Mel-6; 4.5 mg/kg, 39 day",1129.0 + 600.0
same,percent change in tumor volume Vt/Vt−1,"human melanoma Mel-6; 4.5 mg/kg, 39 day",39.8 ± 27.3%
same,V (tumor volume) M + m,"human melanoma Mel-6; 4.5 mg/kg, 46 day",1354.0 + 735.0
same,percent change in tumor volume Vt/Vt−1,"human melanoma Mel-6; 4.5 mg/kg, 46 day",19.6 ± 17.5%
same,V (tumor volume) M + m,"human melanoma Mel-6; 4.5 mg/kg, 53 day",1550.0 + 780.0
same,percent change in tumor volume Vt/Vt−1,"human melanoma Mel-6; 4.5 mg/kg, 53 day",4.2 + 22.5%
same,delay in maximum tumor mass gain in comparison with the control,human melanoma Mel-6; in vivo,7 days
same,toxicity according to the survival index,[1]; B-16 cells,does not show toxicity
same,Initial rate of cell proliferation,"[1]; D 0.01 μM, 48 hours",52.9%
same,Initial rate of cell proliferation,"[1]; D 0.01 μM, 72 hours",61.0%
same,Initial rate of cell proliferation,"[1]; D 1.0 μM, 48 hours",44.6%
same,Initial rate of cell proliferation,"[1]; D 1.0 μM, 72 hours",44.6% and 43.6%
same,Initial rate of cell proliferation,"[1]; IN 70.0 IU/ml + D 1.0 μM, 72 hours",26.1%
same,Initial rate of cell proliferation,"[1]; IN 700.0 IU/ml + D 0.01 μM, 48 hours",24.9%
same,Initial rate of cell proliferation,"[1]; IN 700.0 IU/ml + D 0.01 μM, 72 hours",22.0%
same,Initial rate of cell proliferation,"[1]; IN 700.0 IU/ml + D 1.0 μM, 48 hours",21.5%
same,Initial rate of cell proliferation,"[1]; IN 700.0 IU/ml + D 1.0 μM, 72 hours",16.0%
same,increase in the portion of IIG^2 cells,inoculated B-16 melanoma,12-14%
same,increase of the portion of interphase tumor cells (IIG^1),inoculated B-16 melanoma,≈ 25%
same,portion of proliferating cells (constant),inoculated B-16 melanoma,≈ 30%
same,decrease of the quantity of immature tumor cells vs control,Friend erythroblastosis; Dicarbamine 4.5 mg/kg,15-20%
same,increase of the quantity of lymphocytes vs control,Friend erythroblastosis; Dicarbamine 4.5 mg/kg,4 fold
same,number of lymphocytes,Friend erythroblastosis; Dicarbamine + Reaferon,18-25%
same,quantity of large blast type cells,Friend erythroblastosis; Dicarbamine + Reaferon,70-80%
same,quantity of leukocytes (granular),Friend erythroblastosis; Dicarbamine + Reaferon,2-5%
same,quantity of granulocytes (granular leukocytes),Friend erythroblastosis; single agent,2-5%
same,quantity of lymphocytes (lymphoid cells),Friend erythroblastosis; single agent,18-25%
same,quantity of large blast type cells,"Friend erythroblastosis; single agent (Dicarbamine 4.5 mg/kg p.o. or Reaferon 100 thousand IU/kg s.c., days 3-7)",70-80%
same,Terms of death,CPH 50 + Cysplatin 2 mg/kg,no
same,Total leukocyte number,"CPH 50 + Cysplatin 2 mg/kg, day 0",11.30 ± 2.30 thousand in mm^3
same,Total leukocyte number,"CPH 50 + Cysplatin 2 mg/kg, day 3",6.70 ± 1.15 thousand in mm^3
same,Total leukocyte number,"CPH 50 + Cysplatin 2 mg/kg, day 5",17.00 ± 5.17 thousand in mm^3
same,Total leukocyte number,"CPH 50 + Cysplatin 2 mg/kg, day 7",14.50 ± 2.00 thousand in mm^3
same,Total leukocyte number,"CPH 50 + Cysplatin 2 mg/kg, day 21",12.40 ± 0.99 thousand in mm^3
same,Terms of death,CPH 100 + Cysplatin 4 mg/kg,no
same,Total leukocyte number,"CPH 100 + Cysplatin 4 mg/kg, day 0",11.30 ± 2.30 thousand in mm^3
same,Total leukocyte number,"CPH 100 + Cysplatin 4 mg/kg, day 3",4.14 ± 0.60 thousand in mm^3
same,Total leukocyte number,"CPH 100 + Cysplatin 4 mg/kg, day 5",11.40 ± 1.10 thousand in mm^3
same,Total leukocyte number,"CPH 100 + Cysplatin 4 mg/kg, day 7",14.90 ± 1.32 thousand in mm^3
same,Total leukocyte number,"CPH 100 + Cysplatin 4 mg/kg, day 21",11.80 ± 1.32 thousand in mm^3
same,Total leukocyte number,"CPH 200 + Cysplatin 8 mg/kg i.p. once (Dicarbamine group: 0.5 mg/kg daily 20 days), day 0",11.30 ± 2.30 thousand in mm^3
same,Total leukocyte number,"CPH 200 + Cysplatin 8 mg/kg, day 3",2.32 ± 0.49 thousand in mm^3
same,Total leukocyte number,"CPH 200 + Cysplatin 8 mg/kg, day 5",6.60 ± 0.90 thousand in mm^3
same,Total leukocyte number,"CPH 200 + Cysplatin 8 mg/kg, day 7",10.40 ± 1.54 thousand in mm^3
same,Total leukocyte number,"mouse, in vivo",12.30 ± 1.56 thousand in mm^3
